Experimental data taken from US20160108004A1, “TREATMENT OR PREVENTION OF NEURODEGENERATIVE DISORDERS USING MENTHOL, LINALOOL AND/OR ICILIN” (NESTEC S.A., priority 2013, published 2016).

Experiments:
[1] = tested on: Lateral Amygdala glutamatergic neuron; test: whole cell, current clamp recordings in a Lateral Amygdala glutamatergic neuron (mouse brain slice); type: cell-based; conditions: for inactivation of the sodium fast channels relative to control: square pulse of 2.5 s at high depolarization of membrane potential (approximately −30 mV), FIG. 2
From the text: (§1) A mouse brain slice was used to study the effects of Menthol, Linalool and Icilin. The amygdaloid complex is located within the medial temporal lobe in neocortex and amygdala. The lateral and basolateral nuclei of the amygdaloid complex receive sensory information from cortical and thalamic structures, process the information, and then transmit the information, either directly or through the basal nucleus, to the central nucleus. For experimental analysis of neural activity, synaptic responses from the basolateral complex can be evoked electrically using electrodes, and the action potentials can be measured.
A square pulse of 2.5 s was applied at high depolarization of membrane potential (approximately −30 mV).

[2] = tested on: Lateral Amygdala glutamatergic neuron; test: whole cell, current clamp recordings with increasing concentration of gabazine (spontaneous action potential bursts); type: cell-based, mouse
From the text: as §1

Row | Structure (SMILES) | amount of current required to trigger an action potential [1] | threshold to trigger an action potential [1] | action potentials at higher stimulation levels [1] | inactivation of the sodium fast channels relative to control [1] | spontaneous bursts in the presence of gabazine ([2]; Menthol 250 μM applied extracellularly 10 minutes previous to and during exposure to increasing concentrations of gabazine, FIG. 5 compared to FIG. 3) | spontaneous action potential bursts ([2]; increasing concentrations of gabazine applied extracellularly, recordings of 5 min each, washout 10 min, FIG. 3)
1 | O=C1NC(c2cccc([N+](=O)[O-])c2)=CCN1c1ccccc1O [Icilin] | increase the amount of current required to trigger an action potential | increase the threshold to trigger an action potential | abort action potentials at higher stimulation levels | inactivation of the sodium fast channels happens sooner relative to control | – | –
2 | C=CC(C)(O)CCC=C(C)C (centres unmarked) [Linalool] | increase the amount of current required to trigger an action potential | increase the threshold to trigger an action potential | abort action potentials at higher stimulation levels | inactivation of the sodium fast channels happens sooner relative to control | – | –
3 | CC1CCC(C(C)C)C(O)C1 (centres unmarked) [Menthol] | increase the amount of current required to trigger an action potential | increase the threshold to trigger an action potential | abort action potentials at higher stimulation levels | inactivation of the sodium fast channels happens sooner relative to control | complete absence or a strongly decreased presence of spontaneous bursts | –
4 | COc1ccc(-c2ccc(=N)n(CCCC(=O)O)n2)cc1 [gabazine, reference compound] | – | – | – | – | – | neurons spontaneously present action potential bursts
